# Measurements published in patent publication US12421211B2, “Heterocyclic compounds” (Hoffmann-La Roche Inc., priority 2021, dated 2025).
# Structures can show the parent of a compound that is named as a salt.
# System: Acinetobacter baumannii ATCC17961
# Assay: Antimicrobial susceptibility testing: 90% growth inhibitory concentration (IC90) determination
# Assay type: cell-based
# Details: Acinetobacter baumannii, ATCC17961, 16 h, 90% growth inhibitory concentration, Acinetobacter baumannii ATCC17961, Iso-Sensitest broth, OD 600 nm over 16 h; read-out: ATCC 17961 IC90
# In short: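 A. baumannii ATCC17961 at ~5×10^5 CFU/ml in Iso-Sensitest broth exposed to 10-point twofold dilutions (e.g. 50–0.097 μM final), 35±2° C. OD600 read every 20 minutes over 16h; IC50 and IC90 derived from inhibition during logarithmic growth.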
row,SMILES,IC90 [nM]
1,"Cc1n[nH]c(C)c1-c1ccc(-c2cnc(C(=O)Nc3ccc(C(=O)N4CCN(C(=O)C[N+](C)(C)C)CC4)c(Cl)c3)n2C)cc1 [Example F52, [2-[4-[2-chloro-4-[[5-[4-(3,5-dimethyl-1H-pyrazol-4-yl)phenyl]-1-methyl-imidazole-2-carbonyl]amino]benzoyl]piperazin-1-yl]-2-oxo-ethyl]-trimethyl-ammonium; 2,2,2-trifluoroacetate]",270
2,"Cc1n[nH]cc1-c1ccc(-c2cnc(C(=O)Nc3ccc(C(=O)N4CCN(C(=O)CN(C)C)CC4)c(Cl)c3)n2C)cc1 [Example E15, N-[3-chloro-4-[4-[2-(dimethylamino)acetyl]piperazine-1-carbonyl]phenyl]-1-methyl-5-[4-(3-methyl-1H-pyrazol-4-yl)phenyl]imidazole-2-carboxamide; formic acid]",180

# The next lines start with the values.
row,IC90 [nM],SMILES
1,190,"COCCn1ncc(-c2ccc(-c3cnc(C(=O)Nc4ccc(C(=O)N5CCN(C(=O)[C@@H]6CCC(=O)N6)CC5)c(Cl)c4)n3C)c(F)c2F)c1C [Example D26, N-[3-chloro-4-[4-[(2S)-5-oxopyrrolidine-2-carbonyl]piperazine-1-carbonyl]phenyl]-5-[2,3-difluoro-4-[1-(2-methoxyethyl)-5-methyl-pyrazol-4-yl]phenyl]-1-methyl-imidazole-2-carboxamide; 2,2,2-trifluoroacetic acid]"
2,760,"COCCCn1cc(-c2ccc(-c3cnc(C(=O)Nc4ccc(C(=O)N5CCN(C(=O)C6CC[N+](C)(C)CC6)CC5)c(Cl)c4)n3C)c(F)c2F)c(C(F)(F)F)n1 [Example F38, N-[3-chloro-4-[4-(1,1-dimethylpiperidin-1-ium-4-carbonyl)piperazine-1-carbonyl]phenyl]-5-[2,3-difluoro-4-[1-(3-methoxypropyl)-3-(trifluoromethyl)pyrazol-4-yl]phenyl]-1-methyl-imidazole-2-carboxamide; formate]"
3,820,"Cn1c(-c2ccc(-c3cn[nH]c3C3CCOCC3)c(F)c2F)cnc1C(=O)Nc1ccc(C(=O)N2CCN(C(=O)C3CC[N+](C)(C)CC3)CC2)c(Cl)c1 [Example I6, N-[3-chloro-4-[4-(1,1-dimethylpiperidin-1-ium-4-carbonyl)piperazine-1-carbonyl]phenyl]-5-[2,3-difluoro-4-(5-tetrahydropyran-4-yl-1H-pyrazol-4-yl)phenyl]-1-methyl-imidazole-2-carboxamide; formate]"
4,65,"COCCn1ncc(-c2ccc(-c3cnc(C(=O)Nc4ccc(C(=O)N5CCN(C(=O)C6CC[N+](C)(C)CC6)CC5)c(Cl)c4)n3C)c(Cl)c2F)c1C [Example F2, N-[3-chloro-4-[4-(1,1-dimethylpiperidin-1-ium-4-carbonyl)piperazine-1-carbonyl]phenyl]-5-[2-chloro-3-fluoro-4-[1-(2-methoxyethyl)-5-methyl-pyrazol-4-yl]phenyl]-1-methyl-imidazole-2-carboxamide; formate]"
5,85,"COCCn1ncc(-c2ccc(-c3cnc(C(=O)Nc4ccc(C(=O)N5CCC(C(=O)N6CC[N+](C)(C)C(CO)C6)CC5)c(Cl)c4)n3C)c(F)c2F)c1C (centres unmarked) [Example D6, N-[3-chloro-4-[4-[3-(hydroxymethyl)-4,4-dimethyl-piperazin-4-ium-1-carbonyl]piperidine-1-carbonyl]phenyl]-5-[2,3-difluoro-4-[1-(2-methoxyethyl)-5-methyl-pyrazol-4-yl]phenyl]-1-methyl-imidazole-2-carboxamide; formate]"
6,720,"Cc1nn(CC(=O)Nc2ccncc2)cc1-c1ccc(-c2cnc(C(=O)Nc3ccc(C(=O)N4CCN(C(=O)C5CC[N+](C)(C)CC5)CC4)c(Cl)c3)n2C)c(F)c1F [Example G17, N-[3-chloro-4-[4-(1,1-dimethylpiperidin-1-ium-4-carbonyl)piperazine-1-carbonyl]phenyl]-5-[2,3-difluoro-4-[3-methyl-1-[2-oxo-2-(4-pyridylamino)ethyl]pyrazol-4-yl]phenyl]-1-methyl-imidazole-2-carboxamide; chloride]"
7,110,"Cc1n[nH]cc1-c1ccc(-c2cnc(C(=O)Nc3ccc(C(=O)N4CCN(C(=O)CN(C)C)CC4)c(Cl)c3)n2C)c(F)c1F [Example D34, N-[3-chloro-4-[4-[2-(dimethylamino)acetyl]piperazine-1-carbonyl]phenyl]-5-[2,3-difluoro-4-(3-methyl-1H-pyrazol-4-yl)phenyl]-1-methyl-imidazole-2-carboxamide; formic acid]"
8,680,"COCCn1cc(-c2ccc(-c3cnc(C(=O)Nc4ccc(C(=O)N5CCC(NC(=O)[C@@H]6C[C@@H](O)CN6)CC5)c(Cl)c4)n3C)c(F)c2F)c(C)n1 [Example D23, N-[3-chloro-4-[4-[[(2S,4R)-4-hydroxypyrrolidine-2-carbonyl]amino]piperidine-1-carbonyl]phenyl]-5-[2,3-difluoro-4-[1-(2-methoxyethyl)-3-methyl-pyrazol-4-yl]phenyl]-1-methyl-imidazole-2-carboxamide; formic acid]"

# Same assay, conditions: Acinetobacter baumannii, ATCC17961, 16 h, read-out: ATCC 17961 IC90
row,SMILES,IC90 [nM]
1,"COCCn1cc(-c2ccc(-c3cnc(C(=O)Nc4ccc(C(=O)N5CCN(C(=O)C6CC[N+](C)(C)CC6)CC5)c(Cl)c4)n3C)c(F)c2F)c(C)n1 [Example A1, N-[3-chloro-4-[4-(1,1-dimethylpiperidin-1-ium-4-carbonyl)piperazine-1-carbonyl]phenyl]-5-[2,3-difluoro-4-[l-(2-methoxyethyl)-3-methyl-pyrazol-4-yl]phenyl]-1-methyl-imidazole-2-carboxamide; formate]",120
2,"COCCn1cc(-c2ccc(-c3cnc(C(=O)Nc4ccc(C(=O)N5CCN(C(=O)C6CC[N+]7(CC6)CCN(Cc6ccccc6)CC7)CC5)c(Cl)c4)n3C)c(F)c2F)c(C)n1 [Example Q2, N-[4-[4-(3-benzyl-3-aza-6-azoniaspiro[5.5]undecane-9-carbonyl)piperazine-1-carbonyl]-3-chloro-phenyl]-5-[2,3-difluoro-4-[1-(2-methoxyethyl)-3-methyl-pyrazol-4-yl]phenyl]-1-methyl-imidazole-2-carboxamide]",705
3,"COCCn1nc(C)c(-c2ccc(-c3cnc(C(=O)Nc4ccc(C(=O)N5CCN(C(=O)C6CC[N+](C)(CC(N)=O)CC6)CC5)c(Cl)c4)n3C)cc2)c1C (centres unmarked) [Example B10, N-[4-[4-[1-(2-amino-2-oxo-ethyl)-1-methyl-piperidin-1-ium-4-carbonyl]piperazine-1-carbonyl]-3-chloro-phenyl]-5-[4-[1-(2-methoxyethyl)-3,5-dimethyl-pyrazol-4-yl]phenyl]-1-methyl-imidazole-2-carboxamide; formate]",200
4,"COCCn1ncc(-c2ccc(-c3cnc(C(=O)Nc4ccc(C(=O)N5CCN(C(=O)CCC[N+](CCCCN)(CCCCN)CC(=O)O)CC5)c(Cl)c4)n3C)c(F)c2F)c1C [Example P2, bis(4-aminobutyl)-(carboxymethyl)-[4-[4-[2-chloro-4-[[5-[2,3-difluoro-4-[1-(2-methoxyethyl)-5-methyl-pyrazol-4-yl]phenyl]-1-methyl-imidazole-2-carbonyl]amino]benzoyl]piperazin-1-yl]-4-oxo-butyl]ammonium; formate]",66
